In assay [1] the test system is A. baumannii strain ATCC 19606. Briefly: Killing of A. baumannii ATCC 19606 by colistin with Apyrase Agent, CFU count. In kind it is cell-based. Conditions: about 10^6 CFU/ml inoculum; Apyrase Agent 1 and 2 U/ml with colistin, or colistin alone at the same concentrations (0.25-2 μg/ml). The method, then: Approximately 10^6 CFU/ml of A. baumannii strain ATCC 19606 is grown on solid medium culture plates in the presence of combinations of 0, 1, and 2 U/ml of Apyrase Agent and 0, 0.25, 0.5, 1, and 2 μg/ml of colistin. After incubation, the numbers of viable cells are determined by counting the colony forming units (CFU) on the plate (data provided as CFU/ml).
(§1) In this Example (and in subsequent Examples), the colistin is colistin sulfate salt, catalog number C4461 from Sigma-Aldrich (St. Louis, Mo.) and the apyrase is catalog number M0393L from New England BioLabs Inc. (Ipswich, Mass.).

In assay [2] the test system is A. baumannii strain VBA9. Briefly: Killing of colistin-resistant A. baumannii VBA9 by colistin with Apyrase Agent, CFU count. In kind it is cell-based. Conditions: colistin at less than 10-15 μg/ml, with Apyrase Agent 2 U/ml or alone. The protocol: as §1
Approximately 10^5 to 10^6 CFU/ml of the colistin-resistant A. baumannii strain VBA9 is grown in the presence of combinations of 0 and 2 U/ml of Apyrase Agent and approximately 0 to 32 μg/ml of colistin. After incubation, the numbers of viable cells are determined by counting the colony forming units (CFU) on the plate (data provided as CFU/ml). Apyrase Agent improves the efficiency of killing A. baumannii strain VBA9 by colistin. Apyrase Agent increases the effectiveness of colistin at less than 10-15 μg/ml such that less than 10 to 100 CFU/ml are detected relative to greater than 10^6 to 10^7 in the presence of colistin alone.

Assay [3] concerns P. aeruginosa strain AU1292. Briefly: Killing of P. aeruginosa AU1292 by colistin with Apyrase Agent, CFU count. Format: cell-based. Conditions: colistin at less than 20 μg/ml, with Apyrase Agent 2 U/ml or alone. The method, then: as §1
(§2) P. aeruginosa strain AU1292 is grown in the presence of combinations of 0 and 2 U/ml of Apyrase Agent and approximately 0 to 20 μg/ml of colistin. After incubation, the numbers of viable cells are determined by counting the colony forming units (CFU) on the plate (data provided as CFU/ml). Apyrase Agent improves the efficiency of killing P. aeruginosa strain AU1292 by colistin. Apyrase Agent increases the effectiveness of colistin at less than 20 μg/ml such that less than 10 to 100 CFU/ml are detected relative to greater than 10^4 to 10^5 in the presence of colistin alone at the same concentrations.

Assay [4] concerns P. aeruginosa strain AU7443, mucoid. Briefly: Killing of P. aeruginosa AU7443, mucoid by colistin with Apyrase Agent, CFU count. Format: cell-based. Conditions: colistin at less than 20 μg/ml, with Apyrase Agent 2 U/ml or alone. The protocol:
as §1
as §2, with “AU7443, mucoid” for “AU1292”

Assay [5] deals with Burkholderia cepacia GUIa AU0019. Briefly: Killing of Burkholderia cepacia GUIa AU0019 by colistin with Apyrase Agent, CFU count. Conditions: colistin at less than 10 μg/ml, with Apyrase Agent 2 U/ml or alone. Format: cell-based. The method, then: as §1
as §2, with “Burkholderia cepacia GUIa AU0019 is” for “P. aeruginosa strain AU1292 is”, “killing Burkholderia cepacia GUIa AU0019” for “killing P. aeruginosa strain AU1292”, “than 10” for “than 20”, “than 10^5” for “than 10^4”, “to 10^6” for “to 10^5”

Assay [6] has as its system P. aeruginosa AU0584. Briefly: Killing of P. aeruginosa AU0584 by colistin with Apyrase Agent, CFU count. Conditions: colistin at less than 10 μg/ml, with Apyrase Agent 2 U/ml or alone. Format: cell-based. The method, then:
as §1
P. aeruginosa AU0584 is grown in the presence of combinations of 0 and 2 U/ml of Apyrase Agent and approximately 0 to 20 μg/ml of colistin. After incubation, the numbers of viable cells are determined by counting the colony forming units (CFU) on the plate (data provided as CFU/ml). Apyrase Agent improves the efficiency of killing P. aeruginosa AU0584 by colistin. Apyrase Agent increases the effectiveness of colistin at less than 10 μg/ml such that less than 10 to 100 CFU/ml are detected relative to greater than 10^3 to 10^4 in the presence of colistin alone at the same concentrations.

The subject of assay [7] is Burkholderia multivorans AU0801. Briefly: Killing of Burkholderia multivorans AU0801 by colistin with Apyrase Agent, CFU count. Format: cell-based. Conditions: colistin at less than 10 μg/ml, with Apyrase Agent 2 U/ml or alone. The protocol:
as §1
as §2, with “Burkholderia multivorans AU0801 is” for “P. aeruginosa strain AU1292 is”, “killing Burkholderia multivorans AU0801” for “killing P. aeruginosa strain AU1292”, “than 10” for “than 20”, “than 10^5” for “than 10^4”, “to 10^6” for “to 10^5”

Assay [8] deals with A. baumannii DMCI. The assay can be described thus: Mouse burn wound infection model, A. baumannii DMCI, six groups. In kind it is in vivo. Conditions: C57BL/6 mice, 24 hours after burn, colistin 4 μg/ml, treatment immediately after inoculation. An excerpt: An established mouse wound model is used for these tests. Female pathogen-free C57BL/6 mice (Harlan, Indianapolis, Ind.), 12 weeks old, weighing ˜20-25 grams are used in all experiments. The skin over the lumbrosacral and back region is clipped using a 35-W model 5-55E electrical clipper (Oyster-Golden A-S, Head no. 80, blade size 40) by using the method described by Ipaktchi et al. with slight modification. Two hundred microliters of 0.9% saline suspension of A. baumannii DMCI (I×10^6 cells/ml), which is a highly colistin resistant clinical strain, is used for wound infection experiments. Viable bacterial numbers are determined 24 hours after burn. The Student t-test is used for statistical analysis.
Experiments are carried out in six groups (I) a control group, which contains neither apyrase nor colistin; (2) potato apyrase group, which contains potato apyrase (I U/ml); (3) colistin group, which contains colistin (4 μg/ml); (4) potato apyrase and colistin group, (5) Apyrase Agent group, (6) Apyrase Agent and colistin group.
The treatment is applied immediately after inoculation. After 24 hours, the mice are given lethal IP injections of pentobarbital (150 mg/kg) and skin samples are collected using a scalpel and scissors.

For colistin sulfate salt, in assay [1], the viable cell count entry was “approximately 10^5 CFU/ml”. In addition, the “numbers of viable cells (CFU)” value is 10^6 to 10^7 CFU/ml in assay [2]; 10^4 to 10^5 CFU/ml in assay [3]; 10^4 to 10^5 CFU/ml in assay [4]; 10^5 to 10^6 CFU/ml in assay [5]; 10^3 to 10^4 CFU/ml in assay [6]; 10^5 to 10^6 CFU/ml in assay [7]. For the same substance, the “viable bacteria number recovered from burn sites” value in assay [8] is reported as “highest viable bacteria number”.

The values are drawn from patent publication US20170333532A1, “ADP'ASE-ENHANCED APYRASE THERAPY FOR WOUNDS, MICROBIAL INFECTION, SEPSIS, AND HETEROTOPIC OSSIFICATION” (APT THERAPEUTICS, INC, priority 2014, published 2017).
